Activity calls are given as the source filed them. The rule behind the calls is not given here.
Test system: CCRIS mutagenicity, Ames/micronucleus/aberration tests
Assay: CCRIS mutagenicity studies

COc1ccc(C=O)cc1
mutagenic call (Test System: AMES SALMONELLA TYPHIMURIUM, Strain/Indicator: TA97, Metabolic Activation: NONE, Method: PREINCUBATION): inactive; negative
mutagenic call (Test System: AMES SALMONELLA TYPHIMURIUM, Strain/Indicator: TA97, Metabolic Activation: RAT, LIVER, S-9, AROCLOR 1254, Method: PREINCUBATION): inactive; negative
mutagenic call (Test System: AMES SALMONELLA TYPHIMURIUM, Strain/Indicator: TA98, Metabolic Activation: NONE, Method: PREINCUBATION): inactive; negative
mutagenic call (Test System: AMES SALMONELLA TYPHIMURIUM, Strain/Indicator: TA98, Metabolic Activation: RAT LIVER S-9, PHENOBARBITAL AND BETA-NAPHTHOFLAVONE, Method: PREINCUBATION): inactive; negative
mutagenic call (Test System: AMES SALMONELLA TYPHIMURIUM, Strain/Indicator: TA100, Metabolic Activation: NONE, Method: PREINCUBATION): inactive; negative
mutagenic call (Test System: AMES SALMONELLA TYPHIMURIUM, Strain/Indicator: TA100, Metabolic Activation: RAT LIVER S-9, PHENOBARBITAL AND BETA-NAPHTHOFLAVONE, Method: PREINCUBATION): inactive; negative
mutagenic call (Test System: AMES SALMONELLA TYPHIMURIUM, Strain/Indicator: TA102, Metabolic Activation: NONE, Method: PREINCUBATION): inactive; negative
mutagenic call (Test System: AMES SALMONELLA TYPHIMURIUM, Strain/Indicator: TA102, Metabolic Activation: RAT, LIVER, S-9, AROCLOR 1254, Method: PREINCUBATION): inactive; negative
mutagenic call (Test System: AMES SALMONELLA TYPHIMURIUM, Strain/Indicator: TA1535, Metabolic Activation: NONE, Method: PREINCUBATION): inactive; negative
mutagenic call (Test System: AMES SALMONELLA TYPHIMURIUM, Strain/Indicator: TA1535, Metabolic Activation: RAT LIVER S-9, PHENOBARBITAL AND BETA-NAPHTHOFLAVONE, Method: PREINCUBATION): inactive; negative
mutagenic call (Test System: AMES SALMONELLA TYPHIMURIUM, Strain/Indicator: TA1537, Metabolic Activation: NONE, Method: PREINCUBATION): inactive; negative
mutagenic call (Test System: AMES SALMONELLA TYPHIMURIUM, Strain/Indicator: TA1537, Metabolic Activation: RAT LIVER S-9, PHENOBARBITAL AND BETA-NAPHTHOFLAVONE, Method: PREINCUBATION): inactive; negative
mutagenic call (Test System: AMES SALMONELLA TYPHIMURIUM, Strain/Indicator: TA1538, Metabolic Activation: NONE, Method: PREINCUBATION): inactive; negative
mutagenic call (Test System: AMES SALMONELLA TYPHIMURIUM, Strain/Indicator: TA1538, Metabolic Activation: RAT LIVER S-9, PHENOBARBITAL AND BETA-NAPHTHOFLAVONE, Method: PREINCUBATION): inactive; negative
mutagenic call (Test System: E. COLI, Strain/Indicator: WP2UVRA, Metabolic Activation: NONE, Method: PREINCUBATION): inactive; negative
mutagenic call (Test System: E. COLI, Strain/Indicator: WP2UVRA, Metabolic Activation: RAT LIVER S-9, PHENOBARBITAL AND BETA-NAPHTHOFLAVONE, Method: PREINCUBATION): inactive; negative
mutagenic call (Test System: MOUSE LYMPHOMA, Strain/Indicator: L5178Y (TK+/TK-), Metabolic Activation: NONE, Method: SUSPENSION/PLATE): active; positive
mutagenic call (Test System: MOUSE LYMPHOMA, Strain/Indicator: L5178Y (TK+/TK-), Metabolic Activation: RAT, LIVER, S-9, AROCLOR 1254, Method: SUSPENSION/PLATE): active; positive. reevaluation of results: positive
mutagenic call (Test System: Mouse lymphoma, Strain/Indicator: L5178Y (tk+/tk-), Metabolic Activation: None, Method: Suspension/plate): inactive; negative

Source: PubChem BioAssay AID1259407 (Chemical Carcinogenesis Research Information System (CCRIS), 2018)
